Measurements reported in ChEMBL document CHEMBL2029239, “Identification, design and biological evaluation of bisaryl quinolones targeting Plasmodium falciparum type II NADH:quinone oxidoreductase (PfNDH2)” (J Med Chem, 2012).

Assays:
Plasmodium falciparum [1] = assay: Antimalarial activity against blood stage forms of Plasmodium falciparum 3D7; type: functional, organism-based
[2] = Inhibition of Plasmodium falciparum recombinant NDH2 expressed in Escherichia coli F571 using decyclubiquinone as substrate at 1 min by spectrophotometry
[3] = Inhibition of Plasmodium falciparum cytochrome b-c1 complex using decylubiquinol as substrate by spectrophotometry
Plasmodium falciparum [4] = assay: Antimalarial activity against atoquinone-resistant Plasmodium falciparum TM90C2B; type: functional, organism-based
Plasmodium falciparum [5] = assay: Antimalarial activity against chloroquine-resistant Plasmodium falciparum W2; type: functional, organism-based

SMILES: Cc1c(-c2ccc(Cc3ccc(F)cc3)cc2)[nH]c2ccccc2c1=O
- IC50 (Plasmodium falciparum [1]): 0.083 µM
- IC50 [2]: < 0.001 µM
- IC50 [3]: 0.0255 µM
- IC50 (Plasmodium falciparum [4]): 0.273 µM

SMILES: Cc1c(-c2ccc(Cc3ccc(OC(F)(F)F)cc3)cc2)[nH]c2cc(O)ccc2c1=O
- IC50 (Plasmodium falciparum [1]): 0.139 µM

SMILES: COc1ccc2[nH]c(-c3ccc(Cc4ccc(OC(F)(F)F)cc4)cc3)c(C)c(=O)c2c1
- IC50 (Plasmodium falciparum [1]): 0.465 µM

SMILES: CCOC(=O)Oc1c(C)c(-c2ccc(Cc3ccc(OC(F)(F)F)cc3)cc2)nc2ccccc12
- IC50 (Plasmodium falciparum [1]): 0.027 µM
- IC50 (Plasmodium falciparum [4]): 0.0068 µM

SMILES: Cc1c(-c2ccc(Cc3ccc(OC(F)(F)F)cc3)cc2F)[nH]c2cc(Cl)ccc2c1=O
- IC50 (Plasmodium falciparum [1]): 0.03 µM

SMILES: COC(=O)c1ccc(Cc2ccc(-c3cc(=O)c4ccccc4[nH]3)cc2)cc1
- IC50 (Plasmodium falciparum [1]): 0.272 µM
- IC50 [2]: 0.019 µM

SMILES: Cc1c(-c2ccc(Cc3cccc(OCCN4CCOCC4)c3)cc2)[nH]c2ccccc2c1=O
- IC50 (Plasmodium falciparum [1]): 0.355 µM
- IC50 [2]: 0.279 µM

SMILES: O=c1cc(-c2ccc(Cc3ccc(OC(F)(F)F)cc3)cc2)[nH]c2ccc(N3CCNCC3)cc12
- IC50 (Plasmodium falciparum [1]): 0.43 µM

SMILES: Cc1c(-c2ccc(Cc3ccc(OC(F)(F)F)cc3)cc2)n(O)c2cc(Cl)ccc2c1=O
- IC50 (Plasmodium falciparum [1]): 0.149 µM
- IC50 (Plasmodium falciparum [4]): > 1 µM

SMILES: COc1ccc2c(=O)c(C)c(-c3ccc(Cc4ccc(OC(F)(F)F)cc4)cc3)[nH]c2c1
- IC50 (Plasmodium falciparum [1]): 0.008 µM
- IC50 (Plasmodium falciparum [5]): 0.013 µM

SMILES: O=c1cc(-c2ccc(OC(F)(F)F)cc2)[nH]c2ccccc12
- IC50 (Plasmodium falciparum [1]): 0.675 µM
- IC50 [2]: 0.0479 µM

SMILES: COc1ccc(-c2[nH]c3ncccc3c(=O)c2C)cc1
- IC50 (Plasmodium falciparum [1]): > 1 µM

SMILES: O=c1cc(-c2ccc(O)cc2)[nH]c2ccccc12
- IC50 (Plasmodium falciparum [1]): > 1 µM

SMILES: O=c1c(-c2ccc(Oc3ccc(OC(F)(F)F)cc3)cc2)c[nH]c2ccccc12
- IC50 (Plasmodium falciparum [1]): 0.797 µM

SMILES: O=c1cc(-c2ccc(Cc3ccc(CO)cc3)cc2)[nH]c2ccccc12
- IC50 (Plasmodium falciparum [1]): > 1 µM

SMILES: Cc1c(-c2ccc(Cc3ccc(OC(F)(F)F)cc3)cc2)[nH]c2c(O)cccc2c1=O
- IC50 (Plasmodium falciparum [1]): 0.819 µM

SMILES: CCOC(=O)Oc1c(-c2ccc(Cc3ccc(OC(F)(F)F)cc3)cc2)c(C)nc2ccccc12
- IC50 (Plasmodium falciparum [1]): 0.027 µM
- IC50 (Plasmodium falciparum [4]): 0.224 µM

SMILES: Cc1c(-c2ccc(Oc3ccc(OC(F)(F)F)cc3)cc2)n(O)c2ccccc2c1=O
- IC50 (Plasmodium falciparum [1]): 0.035 µM
- IC50 [2]: 0.108 µM
- IC50 (Plasmodium falciparum [4]): 0.566 µM

SMILES: COc1ccc(Cc2ccc(-c3[nH]c4ccccc4c(=O)c3C)cc2)cc1
- IC50 (Plasmodium falciparum [1]): 0.037 µM
- IC50 [2]: 0.113 µM
- IC50 (Plasmodium falciparum [4]): 0.577 µM

SMILES: Cc1c(-c2ccc(Cc3ccc(OC(F)(F)F)cc3)cc2)[nH]c2cc(C(F)(F)F)ccc2c1=O
- IC50 (Plasmodium falciparum [1]): 0.212 µM

SMILES: O=c1c(CO)c(-c2ccc(Cc3ccc(OC(F)(F)F)cc3)cc2)[nH]c2cc(Cl)ccc12
- IC50 (Plasmodium falciparum [1]): 0.063 µM
- IC50 (Plasmodium falciparum [4]): 0.33 µM

SMILES: Cc1c(-c2ccc(C(F)(F)F)cc2)[nH]c2ccccc2c1=O
- IC50 (Plasmodium falciparum [1]): 0.752 µM
- IC50 [2]: 0.0885 µM

SMILES: Cc1c(-c2cccc(Cc3ccc(OC(F)(F)F)cc3)c2)[nH]c2ccc(Cl)cc2c1=O
- IC50 (Plasmodium falciparum [1]): 0.0084 µM
- IC50 (Plasmodium falciparum [4]): 0.031 µM

SMILES: CCOC(=O)c1c(-c2ccc(Cc3ccc(OC(F)(F)F)cc3)cc2)[nH]c2cc(Cl)ccc2c1=O
- IC50 (Plasmodium falciparum [1]): 0.026 µM
- IC50 (Plasmodium falciparum [4]): 0.092 µM

SMILES: Cc1c(-c2ccc(OC(F)(F)F)cc2)[nH]c2ncccc2c1=O
- IC50 (Plasmodium falciparum [1]): > 1 µM

SMILES: CCOC(=O)Oc1c(C)c(-c2ccc(Oc3ccc(OC(F)(F)F)cc3)cc2)nc2ccccc12
- IC50 (Plasmodium falciparum [1]): 0.06 µM
- IC50 (Plasmodium falciparum [4]): 0.406 µM

SMILES: O=c1cc(-c2ccc(Cc3ccc(OC(F)(F)F)cc3)cc2)[nH]c2cc(O)c(F)cc12
- IC50 (Plasmodium falciparum [1]): > 1 µM

SMILES: Cc1c(-c2ccc(Cc3ccc(F)cc3)cc2)[nH]c2ncccc2c1=O
- IC50 (Plasmodium falciparum [1]): 0.506 µM

SMILES: COc1ccc(-c2[nH]c3ccccc3c(=O)c2Cl)cc1
- IC50 (Plasmodium falciparum [1]): 0.56 µM
- IC50 [2]: 1.67 µM

SMILES: O=c1cc(-c2ccc(Cc3ccc(OC(F)(F)F)cc3)cc2)[nH]c2cc(F)c(F)cc12
- IC50 (Plasmodium falciparum [1]): 0.016 µM
- IC50 (Plasmodium falciparum [4]): 0.626 µM

SMILES: Cc1[nH]c2ccccc2c(=O)c1-c1ccc(Cc2ccc(OC(F)(F)F)cc2)cc1
- IC50 (Plasmodium falciparum [1]): 0.036 µM
- IC50 [2]: 0.492 µM
- IC50 (Plasmodium falciparum [5]): 0.042 µM

SMILES: COc1ccc(-c2cc(=O)c3ccccc3[nH]2)cc1
- IC50 (Plasmodium falciparum [1]): > 1 µM

SMILES: Cc1c(-c2ccc(Cc3ccc(OC(F)(F)F)cc3)cc2)c(=O)c2ccccc2n1O
- IC50 (Plasmodium falciparum [1]): 0.175 µM
- IC50 [2]: 0.0135 µM
- IC50 (Plasmodium falciparum [4]): 0.67 µM

SMILES: COc1cccc2c(=O)c(C)c(-c3ccc(Cc4ccc(OC(F)(F)F)cc4)cc3)[nH]c12
- IC50 (Plasmodium falciparum [1]): 0.381 µM

SMILES: Cc1c(-c2ccc(Cc3ccccc3)cc2)[nH]c2ccccc2c1=O
- IC50 (Plasmodium falciparum [1]): 0.107 µM
- IC50 [2]: 0.0274 µM
- IC50 (Plasmodium falciparum [4]): 0.416 µM

SMILES: Cc1c(-c2ccc(OC(F)(F)F)cc2)[nH]c2ccccc2c1=O
- IC50 (Plasmodium falciparum [1]): > 1 µM

SMILES: O=c1cc(-c2ccc(Cc3ccc(OC(F)(F)F)cc3)cc2)[nH]c2cc(Cl)c(Cl)cc12
- IC50 (Plasmodium falciparum [1]): 0.028 µM
- IC50 [2]: 0.173 µM

SMILES: O=c1cc(-c2ccc(Cc3ccc(OC(F)(F)F)cc3)cc2)[nH]c2ccccc12
- IC50 (Plasmodium falciparum [1]): 0.048 µM
- IC50 [2]: 0.0062 µM
- IC50 [3]: 0.0139 µM
- IC50 (Plasmodium falciparum [4]): 0.251 µM
- IC50 (Plasmodium falciparum [5]): 0.036 µM

SMILES: O=c1c(Cl)c(-c2ccc(OC(F)(F)F)cc2)[nH]c2ccccc12
- IC50 (Plasmodium falciparum [1]): 0.513 µM
- IC50 [2]: 0.253 µM

SMILES: O=c1c(CO)c(-c2ccc(Oc3ccc(OC(F)(F)F)cc3)cc2)[nH]c2cc(Cl)ccc12
- IC50 (Plasmodium falciparum [1]): 0.2 µM

SMILES: O=c1c(-c2ccc(Oc3ccc(OC(F)(F)F)cc3)cc2)c(CO)[nH]c2ccccc12
- IC50 (Plasmodium falciparum [1]): 0.091 µM
- IC50 [2]: > 56 µM

SMILES: Cc1c(-c2cccc(Cc3ccc(OC(F)(F)F)cc3)c2)[nH]c2ccccc2c1=O
- IC50 (Plasmodium falciparum [1]): 0.026 µM
- IC50 [2]: 0.05 µM
- IC50 [3]: 0.219 µM
- IC50 (Plasmodium falciparum [4]): 0.065 µM

SMILES: Cc1c(-c2ccc(Cc3ccc(OC(F)(F)F)cc3)cc2)[nH]c2cc(Cl)c(F)cc2c1=O
- IC50 (Plasmodium falciparum [1]): 0.038 µM

SMILES: Cc1c(-c2ccc(Oc3ccc(OCCN4CCOCC4)cc3)cc2)[nH]c2ccccc2c1=O
- IC50 (Plasmodium falciparum [1]): > 1 µM

SMILES: O=c1cc(-c2ccc(C(F)(F)F)cc2)[nH]c2ccccc12
- IC50 (Plasmodium falciparum [1]): 0.579 µM
- IC50 [2]: 0.0529 µM

SMILES: Cc1c(-c2ccc(Cc3ccc(OC(F)(F)F)cc3)cc2)n(O)c2ccccc2c1=O
- IC50 (Plasmodium falciparum [1]): 0.022 µM
- IC50 [2]: 0.0552 µM
- IC50 (Plasmodium falciparum [4]): 0.217 µM
- IC50 (Plasmodium falciparum [5]): 0.008 µM

SMILES: Cc1c(-c2ccc(Cc3ccc(OC(F)(F)F)cc3)cc2)[nH]c2ccc(C(F)(F)F)cc2c1=O
- IC50 (Plasmodium falciparum [1]): 0.654 µM

SMILES: Cc1c(-c2ccc(C(F)(F)F)cc2)[nH]c2ncccc2c1=O
- IC50 (Plasmodium falciparum [1]): > 1 µM

SMILES: O=c1c(Cl)c(-c2ccc(Cc3ccc(OC(F)(F)F)cc3)cc2)[nH]c2ccccc12
- IC50 (Plasmodium falciparum [1]): 0.019 µM
- IC50 [2]: 0.137 µM
- IC50 (Plasmodium falciparum [4]): 0.328 µM
- IC50 (Plasmodium falciparum [5]): 0.022 µM

SMILES: Cc1c(-c2ccc(Cc3ccc(OC(F)(F)F)cc3)cc2)[nH]c2ncccc2c1=O
- IC50 (Plasmodium falciparum [1]): 0.407 µM
- IC50 [2]: 0.097 µM
- IC50 (Plasmodium falciparum [4]): 1.88 µM

SMILES: COc1cc2[nH]c(-c3ccc(Cc4ccc(OC(F)(F)F)cc4)cc3)cc(=O)c2cc1F
- IC50 (Plasmodium falciparum [1]): 0.039 µM

SMILES: Cc1c(-c2ccc(Br)cc2)[nH]c2ncccc2c1=O
- IC50 (Plasmodium falciparum [1]): > 1 µM

SMILES: Cc1c(-c2ccc(Cc3ccc(OC(F)(F)F)cc3)cc2)[nH]c2cc(F)ccc2c1=O
- IC50 (Plasmodium falciparum [1]): 0.069 µM
- IC50 [2]: 0.0121 µM
- IC50 (Plasmodium falciparum [4]): 0.191 µM

SMILES: Cc1c(-c2ccc(Cc3ccc(OC(F)(F)F)cc3)cc2)[nH]c2cc(F)c(Cl)cc2c1=O
- IC50 (Plasmodium falciparum [1]): 0.07 µM

SMILES: Cc1c(-c2cccc(Cc3ccc(OC(F)(F)F)cc3)c2)[nH]c2cc(Cl)ccc2c1=O
- IC50 (Plasmodium falciparum [1]): 0.034 µM
- IC50 (Plasmodium falciparum [4]): 0.094 µM

SMILES: O=c1cc(-c2ccc(Cc3ccc(OC(F)(F)F)cc3)cc2)n(O)c2ccccc12
- IC50 (Plasmodium falciparum [1]): 0.263 µM
- IC50 [2]: 0.071 µM
- IC50 (Plasmodium falciparum [4]): 0.403 µM

SMILES: Cc1c(-c2ccc(Cc3ccc(OC(F)(F)F)cc3)cc2)[nH]c2ccc(O)cc2c1=O
- IC50 (Plasmodium falciparum [1]): 0.465 µM

SMILES: Cc1c(-c2ccc(Cc3ccc(F)cc3)cc2)[nH]c2cc(Cl)ccc2c1=O
- IC50 [2]: 0.196 µM

SMILES: Cc1[nH]c2ccccc2c(=O)c1-c1ccc(Oc2ccc(OC(F)(F)F)cc2)cc1
- IC50 (Plasmodium falciparum [1]): 0.01 µM
- IC50 [2]: 0.19 µM
- IC50 (Plasmodium falciparum [5]): 0.034 µM

SMILES: Cc1c(-c2ccc(Cc3ccc(OC(F)(F)F)cc3)cc2)[nH]c2cc(F)c(F)cc2c1=O
- IC50 (Plasmodium falciparum [1]): 0.024 µM
- IC50 [2]: 0.0309 µM
- IC50 (Plasmodium falciparum [4]): 0.207 µM

SMILES: O=c1cc(-c2ccc(Cc3ccc(OC(F)(F)F)cc3)cc2)[nH]c2cc(N3CCNCC3)ccc12
- IC50 (Plasmodium falciparum [1]): 0.443 µM

SMILES: CCOC(=O)c1c(-c2ccc(Cc3ccc(OC(F)(F)F)cc3)cc2)[nH]c2ccccc2c1=O
- IC50 (Plasmodium falciparum [1]): 0.0396 µM
- IC50 [2]: 0.268 µM
- IC50 (Plasmodium falciparum [4]): 1.4 µM

SMILES: CC(=O)Oc1cccc2c(=O)c(C)c(-c3ccc(Cc4ccc(OC(F)(F)F)cc4)cc3)[nH]c12
- IC50 (Plasmodium falciparum [1]): 0.408 µM

SMILES: Cc1c(-c2ccc(Oc3ccc(Cl)cc3)cc2)[nH]c2ccccc2c1=O
- IC50 (Plasmodium falciparum [1]): 0.23 µM
- IC50 [2]: 0.036 µM
- IC50 (Plasmodium falciparum [4]): 0.797 µM

SMILES: COc1cccc2[nH]c(-c3ccc(Cc4ccc(OC(F)(F)F)cc4)cc3)c(C)c(=O)c12
- IC50 (Plasmodium falciparum [1]): 0.664 µM

SMILES: Cc1c(-c2ccc(Oc3cccc(OCCN4CCOCC4)c3)cc2)[nH]c2ccccc2c1=O
- IC50 (Plasmodium falciparum [1]): 0.719 µM
